{
  "source": "patent US11504326B2",
  "about": "“Lipid emulsion therapy for treating acute cannabinoid intoxication” (priority 2019, dated 2022)",
  "origin": "cited, not measured here",
  "key": {"[1]": {"details": "in vivo"}, "psychoactive effects": {"tested_on": "psychoactive effects", "details": "for dose that impairs attention, concentration, short-term memory, and executive functioning: adolescents and adults"}},
  "note": "Like-named read-outs stand apart in the source and are kept apart here.",
  "data": [
    {"compound": "CCCCCc1cc(O)c2c(c1)OC(C)(C)[C@@H]1CCC(C)=C[C@@H]21", "note": "[THC, tetrahydrocannabinol]", "values": [
      {"measurement": "protein-bound", "setting": "[1]", "result": "95-99%"},
      {"measurement": "volume of distribution", "setting": "[1]", "result": "2.5 to 3.5", "unit": "L/kg"},
      {"measurement": "dose that impairs attention, concentration, short-term memory, and executive functioning", "setting": "psychoactive effects; ingested", "result": "5 to 20", "unit": "mg"},
      {"measurement": "dose at which psychotropic effects occur", "setting": "psychoactive effects; ingested, naive users", "result": "5 to 20", "unit": "mg"},
      {"measurement": "dose that impairs attention, concentration, short-term memory, and executive functioning", "setting": "psychoactive effects; inhaled", "result": "2 to 3", "unit": "mg"},
      {"measurement": "dose sufficient to produce drug effects", "setting": "psychoactive effects; inhaled, naïve user", "result": "2 to 3", "unit": "mg"}
    ]}
  ]
}
